Assay results as given in patent US5470852A, “Tetrahydroprotoberberine quaternary ammonium compounds useful in for treating arrhythmia” (priority 1991, dated 1995).
Read-outs that look alike come from different tables or passages of the source.

Tests used:
anaesthetized rats = conditions: for Antiarrhythmic effect / Arrhythmic scores / Lethal risk: X ± SD; for Incidence of VF: n=10; for Death / animals with VF / animals without VF: of n=10; for therapeutic index (TI), VF / therapeutic index (TI), arrhythmias: rat, in vivo
[1] = system: guinea pig papillary muscles; test: Action potential of guinea pig papillary muscles under anoxia, high K+ and acidosis; type: cell-based
Source text: Effect of I13 (μ mol/L) on estimates of action potential of guinea
papillary muscles under anoxia, high K^+ and acidosis

rabbits = test: Electrically-induced ventricular fibrillation threshold (VFT) in rabbits; type: in vivo, rabbit; conditions: for VFT Before: baseline
[2] = anoxia, high K+ and acidosis, I13 concentration not given

COc1ccc2c(c1OC)C[N+]1(Cc3ccc(Cl)cc3)CCc3cc4c(cc3C1C2)OCO4 (centres unmarked) [Compound I13, 7-(4-chlorobenzyl)-5,8,13,13a-tetrahydroberberine chloride]
Antiarrhythmic effect (anaesthetized rats; po 10 mg/kg, reperfusion 5 min): 1.0 ± 1.2
Antiarrhythmic effect (anaesthetized rats; po 10 mg/kg, reperfusion 6 min): 0.8 ± 1.1
Antiarrhythmic effect (anaesthetized rats; po 10 mg/kg, reperfusion 7 min): 0.8 ± 1.1
Antiarrhythmic effect (anaesthetized rats; po 10 mg/kg, reperfusion 15 min): 0.8 ± 1.1
Antiarrhythmic effect (anaesthetized rats; po 10 mg/kg, reperfusion 25 min): 0.8 ± 1.1
Arrhythmic scores (anaesthetized rats; po 30 mg/kg): 3.2 ± 2.2
Lethal risk (anaesthetized rats; po 30 mg/kg): 57 ± 26
Antiarrhythmic effect (anaesthetized rats; po 30 mg/kg, coronary occlusion 5 min): 0 ± 0
Antiarrhythmic effect (anaesthetized rats; po 30 mg/kg, coronary occlusion 10 min): 1.6 ± 1.6
Incidence of VF (anaesthetized rats; po 30 mg/kg): 20%
Death (anaesthetized rats; po 30 mg/kg): 1
animals with VF (anaesthetized rats; po 30 mg/kg): 2
animals without VF (anaesthetized rats; po 30 mg/kg): 7
Antiarrhythmic effect (anaesthetized rats; po 30 mg/kg, reperfusion 0.17 min): 3.2 ± 1.2
Antiarrhythmic effect (anaesthetized rats; po 30 mg/kg, reperfusion 0.33 min): 2.8 ± 2.1
Antiarrhythmic effect (anaesthetized rats; po 30 mg/kg, reperfusion 0.5 min): 1.7 ± 1.7
Antiarrhythmic effect (anaesthetized rats; po 30 mg/kg, reperfusion 1 min): 1.1 ± 1.5
Antiarrhythmic effect (anaesthetized rats; po 30 mg/kg, reperfusion 1.5 min): 1.1 ± 1.5
Antiarrhythmic effect (anaesthetized rats; po 30 mg/kg, reperfusion 3 min): 1.6 ± 2.4
Antiarrhythmic effect (anaesthetized rats; po 30 mg/kg, reperfusion 4 min): 0.8 ± 1.3
Antiarrhythmic effect (anaesthetized rats; po 30 mg/kg, reperfusion 5 min): 0.2 ± 0.2
Antiarrhythmic effect (anaesthetized rats; po 30 mg/kg, reperfusion 6 min): 0.2 ± 0.2
Antiarrhythmic effect (anaesthetized rats; po 30 mg/kg, reperfusion 7 min): 0.15 ± 0.24
Antiarrhythmic effect (anaesthetized rats; po 30 mg/kg, reperfusion 15 min): 0.11 ± 0.22
Antiarrhythmic effect (anaesthetized rats; po 30 mg/kg, reperfusion 25 min): 0.05 ± 0.17
Arrhythmic scores (anaesthetized rats; po 100 mg/kg): 0.7 ± 0.2
Lethal risk (anaesthetized rats; po 100 mg/kg): 41 ± 0
Antiarrhythmic effect (anaesthetized rats; po 100 mg/kg, coronary occlusion 5 min): 0.20 ± 0.24
Antiarrhythmic effect (anaesthetized rats; po 100 mg/kg, coronary occlusion 10 min): 0.3 ± 0.6
Incidence of VF (anaesthetized rats; po 100 mg/kg): 0%
Death (anaesthetized rats; po 100 mg/kg): 0
animals with VF (anaesthetized rats; po 100 mg/kg): 0
animals without VF (anaesthetized rats; po 100 mg/kg): 10
Antiarrhythmic effect (anaesthetized rats; po 100 mg/kg, reperfusion 0.17 min): 0.10 ± 0.21
Antiarrhythmic effect (anaesthetized rats; po 100 mg/kg, reperfusion 0.33 min): 0.05 ± 0.16
Antiarrhythmic effect (anaesthetized rats; po 100 mg/kg, reperfusion 0.5 min): 0.4 ± 1.2
Antiarrhythmic effect (anaesthetized rats; po 100 mg/kg, reperfusion 1 min): 0.05 ± 0.16
Antiarrhythmic effect (anaesthetized rats; po 100 mg/kg, reperfusion 1.5 min): 0.05 ± 0.16
Antiarrhythmic effect (anaesthetized rats; po 100 mg/kg, reperfusion 3 min): 0.05 ± 0.16
Antiarrhythmic effect (anaesthetized rats; po 100 mg/kg, reperfusion 4 min): 0.05 ± 0.16
Antiarrhythmic effect (anaesthetized rats; po 100 mg/kg, reperfusion 5 min): 0.05 ± 0.16
Antiarrhythmic effect (anaesthetized rats; po 100 mg/kg, reperfusion 6 min): 0.05 ± 0.16
Antiarrhythmic effect (anaesthetized rats; po 100 mg/kg, reperfusion 7 min): 0.05 ± 0.16
Antiarrhythmic effect (anaesthetized rats; po 100 mg/kg, reperfusion 15 min): 0.05 ± 0.16
Antiarrhythmic effect (anaesthetized rats; po 100 mg/kg, reperfusion 25 min): 0.05 ± 0.16
therapeutic index (TI), VF (anaesthetized rats; iv): 35
therapeutic index (TI), arrhythmias (anaesthetized rats; iv): 26
therapeutic index (TI), VF (anaesthetized rats; po): 92
therapeutic index (TI), arrhythmias (anaesthetized rats; po): 70
Vmax under anoxia, high K+ and acidosis [1]: lowered
RP ([1]; anoxia, high K+ and acidosis, I13 (μmol/L, concentration not given), n=8): 85 ± 2 mv
APA [1, 2]: 116 ± 2 mv
APD20 [1, 2]: 78 ± 13 ms
APD50 [1, 2]: 156 ± 20 ms
APD90 [1, 2]: 170 ± 21 ms
ERP [1, 2]: 186 ± 19 ms
Vmax [1, 2]: 190 ± 40 v/s
VFT Before (rabbits; intra-duodenal 4.5 mg/kg group): 5.8 ± 0.3 volt
VFT Before (rabbits; intra-duodenal 15 mg/kg group): 5.2 ± 0.9 volt
VFT Before (rabbits; iv 1.5 mg/kg group): 5.2 ± 0.6 volt
potency in elevating VFT relative to lidocaine (rabbits; i.v.): ten times more potent than lidocaine
AUC (area under curve, VFT effect) (rabbits; id 4.5 mg/kg): 48.1
AUC (area under curve, VFT effect) (rabbits; id 15 mg/kg): 83.7
VFT After (rabbits; intra-duodenal 4.5 mg/kg): 8.9 ± 0.4 volt
ΔVFT (rabbits; intra-duodenal 4.5 mg/kg): 3.1 ± 0.4 volt
ΔVFT % (rabbits; intra-duodenal 4.5 mg/kg): 53.0 ± 7.6%
VFT After (rabbits; intra-duodenal 15 mg/kg): 9.9 ± 2.2 volt
ΔVFT (rabbits; intra-duodenal 15 mg/kg): 4.8 ± 1.5 volt
ΔVFT % (rabbits; intra-duodenal 15 mg/kg): 92.1 ± 19.5%
AUC (area under curve, VFT effect) (rabbits; iv 1.5 mg/kg): 11.1
VFT After (rabbits; iv 1.5 mg/kg): 8.1 ± 1.1 volt
ΔVFT (rabbits; iv 1.5 mg/kg): 2.8 ± 0.8 volt
ΔVFT % (rabbits; iv 1.5 mg/kg): 54.4 ± 16.9%
AUC (area under curve, VFT effect) (rabbits; iv 4.5 mg/kg): 14.4
VFT After (rabbits; iv 4.5 mg/kg): 8.8 ± 1.1 volt
ΔVFT (rabbits; iv 4.5 mg/kg): 3.6 ± 0.6 volt
ΔVFT % (rabbits; iv 4.5 mg/kg): 72.2 ± 9.7%
